# Assay results: US8999959B2, “Drug for treating liver lesions caused by the action of chemical or biological agents” (priority 2010, dated 2015)
# Assays:
# [1] = tested on: toxic hepatitis caused by carbon tetrachloride (CCl4); assay: Treatment of acute toxic hepatitis (CCl4) in rats by parenteral (intravenous) administration; assay type: in vivo; parameters: Total bilirubin, serum: unit not given here
# Method: Treatment of toxic hepatitis by means of parenteral administration of the inventive substance. Acute toxic hepatitis was induced in rats by means of intragastric administration of 50% solution of carbon tetrachloride (CCl4) in olive oil in the amount of 1 ml/kg during 6 days. After 10 days the presence of toxic hepatitis was confirmed by morphological image of liver in all experimental animals. Starting from that day, for 10 days the preparations were administered to the experimental animals by way of treatment, once every 24 hours.
# Essentiale was used as the preparation for comparison, which was administered in ampoules in the amount of 1 ml/100 g intravenously, slowly, into the caudal vein. The inventive substance was also administered intravenously in varying amounts in order to refine the treatment procedure. The effectiveness of treatment was evaluated on the basis of clinical performance, body weight dynamics, relative liver mass, the contents of bilirubin, transaminases, phosphatases, ceruloplasmin, total protein, blood serum lipids, the contents of glycogen, glutathione, SH-groups, stress tests (hexenal test, bromsulphalein test) and the histological pattern of liver.
# Weight dynamics of the rats were determined by means of scales VLR-500. Liver of the animals was weighted using electronic scales 1602 MP by “Sartorius”. The contents of reduced glutathione in liver and the content of sulfhydryl groups in blood serum was evaluated by amperometric titration according to Rubinnaya N. S. (Stalnaya I.D., Garishvili T. G Modern methods in biochemistry. Moscow, Meditsina, 1977, pp. 66-68), the contents of glycogen—by the Samodi method (Stalnaya I.D., Garishvili T. G Modern methods in biochemistry. Moscow, Meditsina, 1977, pp. 66-68). The antitoxic function of liver was evaluated by the duration of hexenal sleep (70 mg per 1 kg of body weight), and the excretory function of liver was assessed by means of bromsulphalein test.
# Blood for biochemical tests was obtained by means of paracentesis of the caudal vein of rats.
# The activity of ALT, AST, ALP, ACP, LDH, thymol test, the contents of total protein and lipids, cholesterol, blood serum bilirubin were assessed by means of sets Bio-Lat-Test manufactured by a Czech company “Lachema”, the contents of ceruloplasmin were assessed according to Babenko (Laboratory research methods in clinical practice. Reference book, under the editorship of V. V. Menshikov. Moscow, Russia—Meditsina, 1987, p. 365). The animals were killed by decapitation, subjected to anatomicopathological autopsy and histological study. The experimental and reference rats were killed by means of decapitation. The material was fixed in 10-15% formaldehyde and embedded in paraffin. Paraffin slices were stained by means of hematoxylin and eosin. Fixed frozen slices were stained for fat by means of Sudan III.
# Statistical processing of the experiments' results was done according to Student's T-distribution and F-distribution.
# The effectiveness of preparations was assessed according to several groups of indices: morphometric, biochemical and functional. First of all the clinical performance of intoxication was observed. The clinical performance in the group of rats that received CCl4 with no treatment was characterized by hypodynamia, dormancy, disheveled hair and untidy appearance of the animals. They gained weight less well than the other rats. In this group, by day 15 of the study 80% of animals were dead.
# [2] = tested on: liver cirrhosis induced by carbon tetrachloride (CCl4); assay: Treatment of liver cirrhosis (CCl4) in rats by oral administration; assay type: in vivo; parameters: Relative liver mass: unit not given here
# Method: Treatment of liver cirrhosis by oral administration of the inventive substance. Liver cirrhosis was induced in rats by means of intragastric administration of 50% solution of carbon tetrachloride (CCl4) in olive oil in the amount of 1 ml/kg during 10 days. After 20 days the presence of liver cirrhosis was confirmed by morphological image of liver in all laboratory animals. Starting from that day, for 10 days the inventive agent was administered to the laboratory animals by way of treatment, once every 24 hours, in varying amounts in order to refine the optimal treatment procedure.
# The effectiveness of the inventive preparation was evaluated in comparison with Essentiale by several groups of indices: morphometric, biochemical and functional. First of all the clinical performance of intoxication was observed. The clinical performance in the group of rats that received CCl4 with no treatment was characterized by hypodynamia, dormancy, disheveled hair and untidy appearance of the animals. They gained weight less well than the other rats. In this group by day 15 of the study 80% of the animals were dead, in the group that received Essentiale—60%, in the group that received the inventive agent—40%.
# Quantitative assessment of the preparation's effectiveness in treatment of toxic hepatitis was performed using a point rating system, taking into account the marker indices: the largest score for each index was assigned to the group with the more pronounced positive effect of the preparation.
# [3] = CCl4 intoxication, after 10 days i.v. treatment, inventive substance 25 mg/kg, Essentiale 1 ml/100 g, M ± m
# [4] = point rating system, larger score = more pronounced positive effect, inventive substance 180 mg/kg, Essentiale 100 mg/kg
# [5] = rats, CCl4 intoxication (cirrhosis), after 10 days oral treatment, inventive substance 90 mg/kg, Essentiale 100 mg/kg, M ± m
# [6] = rats, CCl4 liver cirrhosis, oral treatment
structure (smiles),measurement,setting,value
"O=Nc1c(O)n(-c2ccc(Br)cc2)c(=O)[nH]c1=O [The inventive substance, 1-(4-bromophenyl)-6-hydroxy-5-nitroso-1,2,3,4-tetrahydropyrimidine-2.4-dione]",Body weight,"[1]; CCl4 intoxication, after 10 days i.v. treatment once every 24 h, inventive substance 25 mg/kg, Essentiale 1 ml/100 g, M ± m",174 ± 8 g
same,Hexenal sleep,"[1]; CCl4 intoxication, after 10 days i.v. treatment, hexenal 70 mg/kg, inventive substance 25 mg/kg, Essentiale 1 ml/100 g, M ± m",31.0 ± 2.0 min
same,ACP,[1]; [3],0.75 ± 0.10 μkat/l
same,"Alanine aminotransferase, serum",[1]; [3],0.85 ± 0.08 µmol/s/L
same,"Alkaline phosphatase, serum",[1]; [3],811 ± 26.3 nmol/s/L
same,"Aspartate aminotransferase, serum",[1]; [3],0.32 ± 0.04 µmol/s/L
same,"Ceruloplasmin, serum",[1]; [3],477 ± 44 mg/L
same,"Cholesterol, serum",[1]; [3],1.70 ± 0.19 mmol/L
same,"Concentration of bromsulphalein at 10th minute after administrating the serum, extinction,",[1]; [3],13.5 ± 1.6 extinction
same,"Glycogen, liver",[1]; [3],2691 ± 191 mg %
same,LDH,[1]; [3],5.49 ± 0.45 mmol/h/L
same,"Reduced glutathione, liver",[1]; [3],164 ± 10 mg %
same,Relative liver mass,[1]; [3],27.87 ± 1.03 g/kg
same,"SH-groups, serum",[1]; [3],1554 ± 72 mg %
same,Thymol test,[1]; [3],1.18 ± 0.17 turbidity units
same,"Total bilirubin, serum",[1]; [3],3.8 ± 0.5
same,"Total lipids, serum",[1]; [3],3.4 ± 0.09 g/L
same,"Total protein, serum",[1]; [3],69 ± 6 g/L
same,"microvesicular focal steatosis (liver histology, in words)","[1]; CCl4 toxic hepatitis, after i.v. treatment",absence of microvesicular focal steatosis
same,percentage of deaths in the groups by the end of the treatment,"[1]; CCl4 toxic hepatitis, day 20, 40% dead by start of treatment (day 10), inventive substance 25 mg/kg i.v., Essentiale 1 ml/100 g i.v.",40%
same,"manifestations of intoxication (clinical performance, in words)","[1]; CCl4 toxic hepatitis, i.v. treatment",reduced or almost completely arrested the manifestations of intoxication
same,"Quantitative assessment of effectiveness, ALP score",[2]; [4],11 points
same,"Quantitative assessment of effectiveness, ALT score",[2]; [4],7 points
same,"Quantitative assessment of effectiveness, AST score",[2]; [4],7 points
same,"Quantitative assessment of effectiveness, Hexenal sleep score",[2]; [4],10 points
same,"Quantitative assessment of effectiveness, Weight coefficient score",[2]; [4],10 points
same,Body weight,"[2]; rats, CCl4 intoxication (cirrhosis), after 10 days oral treatment once every 24 h, inventive substance 90 mg/kg, Essentiale 100 mg/kg, M ± m",174 ± 7 g
same,"Alanine aminotransferase, serum",[2]; [5],0.85 ± 0.08 µmol/s/L
same,"Alkaline phosphatase, serum",[2]; [5],811 ± 26.3 nmol/s/L
same,"Aspartate aminotransferase, serum",[2]; [5],0.32 ± 0.04 µmol/s/L
same,Hexenal sleep,[2]; [5],31.0 ± 2.0 min
same,Relative liver mass,[2]; [5],27.87 ± 1.03
same,"degenerative changes of the liver (histology, in words)","[2]; rats, CCl4 liver cirrhosis, after oral treatment, majority of rats",no degenerative changes of the liver
same,condition and function of liver (in words),[2]; [6],virtually completely and reliably normalized the condition and function of liver
same,"manifestations of intoxication (clinical performance, in words)",[2]; [6],reduced or almost completely arrested the manifestations of intoxication
same,animals dead by day 15 of the study,"[2]; rats, CCl4 liver cirrhosis, oral treatment, untreated CCl4 group 80%",40%
same,"Quantitative assessment of effectiveness, Total points","[2]; sum of marker index scores, inventive substance 180 mg/kg, Essentiale 100 mg/kg",45 points
